Results on 47 molecules are retold here after patent US20080312271A1, “AZABENZIMIDAZOLYL COMPOUNDS” (Pfizer Inc., priority 2006, published 2008).

Read-outs that look alike come from different tables or passages of the source.

The assay has as its target T1, mGluR2 receptor (metabotropic glutamate receptor 2) (Homo sapiens, UniProt Q14416).
T1 construct: expressed in transfected cells
The assay can be described thus: mGluR2 Potentiator Screen, FLIPR, EC10-EC20 glutamate challenge. The class given is cell-based. The protocol: Procedure for mGluR2 Potentiator Screen NLB methods EC10-EC20 Challenge Cell Culture and Plating:
Cells used for this screen are HEK cells stably transfected with the mGluR2 receptor (metabotropic glutamate receptor 2) and the Gα15 G protein. Clones were identified by functional activity (FLIPR). Cells are grown in growth media containing: DMEM High Glucose with Glutamine and Na Pyruvate (GIBCO), 10% (v/v) Heat inactivate FBS (GIBCO), G418 500 ug/ml (from 50 mg/ml stock) (GIBCO) and Blasticidin 3 ug/ml (from 5 mg/ml stock made in H2O) (Invitrogen).
2 days before the assay cell are trypsinized with 0.25% trysin/EDTA (GIBCO), spun down at 1000 rpm for 5 minutes, resuspended in growth media and plated on polystyrene 384 well black wall 1 clear bottom poly-D-lysine coated plates at a density of approximately 18,000 cells/well in a volume of 50 μL per well. One day before the assay the growth media is removed from the plates by flicking, and replaced with media containing DMEM High Glucose without Glutamine and Na Pyruvate (GIBCO) and 10% (v/v) dialyzed FBS (GIBCO). The reason for the removal of glutamine the day before the assay is to minimize the amount of glutamate that will be present during the assay, as endogenous glutarnate released from the cells can reduce the fluorescent response and interfere with the FLIPR screen.
FLIPR Methods and Data Analysis:
On the day of the assay, the FLIPR assay is performed using the following methods.
The pH is adjusted to 7.4 with 1 M NaOH. Prepare a 2 mM (approx.) stock solution of Fluo-4,am (Molecular Probes) dye in DMSO-22 μl DMSO per 50 ug vial (440 μL per 1 mg vial). Make a 1 mM (approx.) flou-4, PA working solution per vial by adding 22 μl of 20% pluronic acid (PA), (Molecular Probes) in DMSO to each 50 ug vial (440 μL per 1 mg vial). Prepare a 250 mM Probenecid (Sigma) stock solution by dissolving 0.71 g into 5 ml 1N NaOH and 5 ml assay buffer (for each liter of assay wash buffer)L Make 4 uM (approx.) dye incubation media by adding […] per 11 ml DMEM high glucose without glutamine (220 ml per 1 mg vial). Add 110 μL probenecid stock per 11 ml (2.5 mM final [concentration]). To the dye media add 3 units/ml of glutamic-pyruvic transaminase (GPT, Sigma) and 3 mM Na Pyruvate. The assay has worked with dye concentrations from 2 uM to 8 uM dye as well. To the assay buffer from drug preparation, add 1.83 mls DMSO and 400 μL 15.8% P104 (from New Leads biology) per liter for final concentrations of 0.18% DMSO and 0.006% P104. To the assay buffer for cell washing, add probenecid in the same manner and concentration that was used for the dye media.
Remove growth media from cell plates by flicking. Add 50 μl/well dye solution. Incubate 1 hour at 37° C. and 5% CO2. Remove dye solution and wash 3 times with assay buffer+probenecid (100 μl probenecid stock per 10 ml buffer), leaving 30 μL/well assay buffer. Wait at least 10-15 minutes. Compounds and agonist challenge additions are performed with the FLIPR. The 1st addition is for test compounds, which are added as 15 μL of 4×[concentration] of potentiator. The second 2nd addition is 15 μL of 4×[concentration] of agonist or challenge. This achieves 1× concentration of all compounds only after 2nd addition. The 1st and 2nd additions are performed separately using the FLIPR, which give 2 different data files. Compounds are pretreated at least 30 minutes before agonist addition,
Results are analyzed by dividing the peak fluorescent value of the FLIPR response by the […] to achieve a ratio response. The ratios are then analyzed by curve fitting programs. […] Maximum values for dose response curves (forced fitting) are derived from standards on the plate.
Compound Preparation and Glutamate Challenge:
Compounds are delivered as 10 mM DMSO stocks or as powders, Powders are solubilized in DMSO at 10 mM (as solubility allows). Compounds are sonicated in a heated water bath (35-40° C.) for at least 20 minutes.

The mark [1] stands for this setting: mGluR2 potentiator screen, FLIPR, EC10-EC20 glutamate challenge.

T1 sequence (Q14416 19-872, species assumed): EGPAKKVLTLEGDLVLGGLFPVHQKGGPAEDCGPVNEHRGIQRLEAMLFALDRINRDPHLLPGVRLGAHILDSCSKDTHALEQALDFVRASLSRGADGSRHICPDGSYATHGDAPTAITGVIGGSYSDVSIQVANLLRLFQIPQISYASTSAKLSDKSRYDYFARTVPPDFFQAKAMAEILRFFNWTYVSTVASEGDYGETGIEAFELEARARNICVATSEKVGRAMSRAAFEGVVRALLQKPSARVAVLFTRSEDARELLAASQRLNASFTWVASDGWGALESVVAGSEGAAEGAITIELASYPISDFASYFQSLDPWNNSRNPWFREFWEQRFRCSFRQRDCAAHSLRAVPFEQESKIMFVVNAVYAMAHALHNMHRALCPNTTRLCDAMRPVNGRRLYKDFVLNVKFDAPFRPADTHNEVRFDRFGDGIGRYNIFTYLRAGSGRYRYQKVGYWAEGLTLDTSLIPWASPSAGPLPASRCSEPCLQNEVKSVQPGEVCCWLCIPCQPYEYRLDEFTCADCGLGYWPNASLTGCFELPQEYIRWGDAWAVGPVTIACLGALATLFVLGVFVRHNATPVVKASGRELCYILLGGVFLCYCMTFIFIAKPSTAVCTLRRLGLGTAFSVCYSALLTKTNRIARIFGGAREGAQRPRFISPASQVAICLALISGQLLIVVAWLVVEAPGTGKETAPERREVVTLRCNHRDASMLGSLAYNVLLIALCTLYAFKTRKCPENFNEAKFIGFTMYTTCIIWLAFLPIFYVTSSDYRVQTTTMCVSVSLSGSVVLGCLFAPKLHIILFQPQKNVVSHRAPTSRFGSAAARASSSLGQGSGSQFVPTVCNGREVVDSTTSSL

Broadly, the EC50 is the concentration that produces a half-maximal response. With `CC(C)Oc1ccc([C@H]2CCN(Cc3nc4ncccc4n3C)C[C@H]2C)c(Cl)c1` (single isomer, unassigned) [compound 221], the EC50 was found to be 77.8 nM.

On to `COc1cc(F)ccc1[C@H]1CCN(Cc2nc3cnccc3n2C)C[C@H]1C` (single isomer, unassigned) [compound 260], for which the EC50 under setting [1] came out at 125 nM.

As to `Cc1cc(OC(F)(F)F)ccc1C1CCN(Cc2nc3ncccc3n2C)CC1` [compound 241], the concentration for a half-maximal effect (EC50) under setting [1] stood at 50.7 nM.

In the case of `Cn1c(CN2CCC(c3ccc(F)cc3F)CC2)nc2cccnc21` [compound 85], the concentration giving a half-maximal response (EC50) worked out at 199 nM.

For `C[C@@H]1CN(Cc2nc3ncccc3n2C)CC[C@@H]1c1ccc(C(F)(F)F)cc1F` (single isomer, unassigned) [compound 139], the concentration giving a half-maximal response (EC50) came out at 993 nM.

As for `C[C@@H]1CN(Cc2nc3cnccc3n2C)CC[C@@H]1c1ccc(OC(F)(F)F)cc1` (single isomer, unassigned) [compound 176], the concentration giving a half-maximal response (EC50) is 98.9 nM.

For `CC(C)Oc1ccc([C@H]2CCN(Cc3nc4ncccc4n3C)C[C@H]2C)c(Cl)c1` (single isomer, unassigned) [compound 222], the concentration giving a half-maximal response (EC50) is above 603 nM.

`C[C@@H]1CN(Cc2nc3ncccc3n2C)CC[C@@H]1c1ccc(OC(F)F)cc1` (relative stereo) [compound 177]: the EC50 stood at 429 nM.

On to `Cn1c(CN2CCC(c3ccc(C(F)(F)F)cc3Cl)CC2)nc2cnccc21` [compound 273], for which the EC50 under setting [1] was determined as 85 nM.

Turning to `CC(C)Oc1ccc([C@H]2CCN(Cc3nc4cnccc4n3C)C[C@H]2C)c(F)c1` (single isomer, unassigned) [compound 220], the 50% effective concentration (EC50) is above 1190 nM.

With `C[C@@H]1CN(Cc2nc3cnccc3n2C)CC[C@@H]1c1ccc(OC(F)F)cc1F` (relative stereo) [compound 199], the EC50 is 122 nM.

As for `Cc1cc(C(F)(F)F)ccc1[C@H]1CCN(Cc2nc3ncccc3n2C)C[C@H]1C` (relative stereo) [compound 239], the EC50 under setting [1] came out at 88 nM.

`C[C@@H]1CN(Cc2nc3ncccc3n2C)CC[C@@H]1c1ccc(C(F)(F)F)cc1` (single isomer, unassigned) [compound 118]: the EC50 was determined as 33.4 nM.

Turning to `Cn1c(CN2CCC(c3ccccc3F)CC2)nc2ncccc21` [compound 54], the EC50 is 1590 nM.

With `C[C@@H]1CN(Cc2nc3ncccc3n2C)CC[C@@H]1c1ccc(Cl)cc1Cl` (relative stereo) [compound 155], the 50% effective concentration (EC50) amounted to 22.9 nM.

For the molecule `C[C@@H]1CN(Cc2nc3ncccc3n2C)CC[C@@H]1c1ccc(OC(F)F)cc1F` (relative stereo) [compound 257], the EC50 under setting [1] is 67.7 nM.

With `C[C@@H]1CN(Cc2nc3ncccc3n2C)CC[C@@H]1c1ccc(C(F)(F)F)cc1Cl` (relative stereo) [compound 151], the EC50 was 30 nM.

As for `COc1ccc([C@H]2CCN(Cc3nc4cnccc4n3C)C[C@H]2C)c(C(F)(F)F)c1` (relative stereo) [compound 174], the EC50 was above 1690 nM.

In the case of `Cn1c(CN2CCC(c3ccc(F)cc3)CC2)nc2ncccc21` [compound 67], the EC50 was 2360 nM.

For the molecule `COc1cc(C2CCN(Cc3nc4ncccc4n3C)CC2)ccc1C(F)(F)F` [compound 279], under setting [1], the EC50 came to 289 nM.

In the case of `CCOc1ccc(Cl)cc1C1CCN(Cc2nc3cccnc3n2C)CC1` [compound 42], the EC50 turned out to be 501 nM.

For the molecule `C[C@@H]1CN(Cc2nc3ncccc3n2C)CC[C@@H]1c1ccc(C(F)(F)F)cc1F` (single isomer, unassigned) [compound 138], the concentration for a half-maximal effect (EC50) is below 9.25 nM.

For `C[C@@H]1CN(Cc2nc3ncccc3n2C)CC[C@@H]1c1ccc(F)cc1C(F)(F)F` (single isomer, unassigned) [compound 252], the 50% effective concentration (EC50) under setting [1] turned out to be 288 nM.

Regarding `Cn1c(CN2CCC(c3ccc(C(F)(F)F)cc3Cl)CC2)nc2ncccc21` [compound 272], under setting [1], the EC50 came to 24.1 nM.

For the molecule `Cn1c(CN2CCC(c3cc(F)ccc3F)CC2)nc2ncccc21` [compound 74], the half-maximal effective concentration (EC50) came out at 782 nM.

With `COc1ccc(C2CCN(Cc3nc4ncccc4n3C)CC2)cc1` [compound 81], the EC50 was 9770 nM.

Consider `C[C@@H]1CN(Cc2nc3ncccc3n2C)CC[C@@H]1c1ccc(Cl)cc1Cl` (single isomer, unassigned) [compound 186], for which the EC50 is 611 nM.

For `COc1ccc(Cl)cc1C1CCN(Cc2nc3cccnc3n2C)CC1` [compound 44], the EC50 was above 808 nM.

For `Cn1c(CN2CCC(c3ccc(C(F)(F)F)cc3)C(O)C2)nc2ncccc21` (stereo not drawn) [compound 86], the EC50 is above 2750 nM.

Take `C[C@@H]1CN(Cc2nc3ncccc3n2C)CC[C@@H]1c1ccc2c(c1)CCCC2` (relative stereo) [compound 189]: the EC50 stood at 621 nM.

Regarding `C[C@@H]1CN(Cc2nc3cnccc3n2C)CC[C@@H]1c1ccc(F)cc1OC(F)F` (relative stereo) [compound 275], the EC50 under setting [1] was 96.5 nM.

Take `Cn1c(CN2CCC(c3ccc(C(F)(F)F)cc3F)CC2)nc2ncccc21` [compound 268]: the EC50 under setting [1] worked out at 12.7 nM.

With `C[C@@H]1CN(Cc2nc3cnccc3n2C)CC[C@@H]1c1ccc(C(F)(F)F)cc1F` (single isomer, unassigned) [compound 143], the concentration giving a half-maximal response (EC50) turned out to be 1180 nM.

As for `Cc1cc(C2CCN(Cc3nc4cnccc4n3C)CC2)ccc1C(F)(F)F` [compound 276], under setting [1], the EC50 is 88.5 nM.

With `Cn1c(CN2CCC(c3ccc(Cl)c(F)c3)CC2)nc2ncccc21` [compound 106], the EC50 stood at 190 nM.

`Cn1c(CN2CCC(c3ccc(C(F)(F)F)cc3F)CC2)nc2cnccc21` [compound 236]: the EC50 under setting [1] came to 50.8 nM.

For the molecule `C[C@@H]1CN(Cc2nc3ncccc3n2C)CC[C@@H]1c1ccc(F)cc1C(F)(F)F` (relative stereo) [compound 204], the EC50 worked out at 28.3 nM.

Consider `C[C@@H]1CN(Cc2nc3nccc4c3n2CCC4)CC[C@@H]1c1ccc(F)c(Cl)c1` (relative stereo) [Example 128, 2-{[Cis-4-(3-chloro-4-fluorophenyl)-3-methylpiperidin-1-yl]methyl}-5,6-dihydro-4H-imidazo[4,5,1-ij]-1,7-naphthyridine], for which the EC50 worked out at 134 nM. In addition, where the note is “HEK cells stably transfected with mGluR2 and Gα15, FLIPR (Fluo-4), potentiation of an EC10 to EC20 concentration of glutamate, Table 9”, the EC50 was found to be 134 nM.

Regarding `Cc1cc(OC(F)(F)F)ccc1[C@H]1CCN(Cc2nc3ncccc3n2C)C[C@H]1C` (relative stereo) [compound 164], the EC50 was below 74.3 nM.

Take `COc1ccc(C2CCN(Cc3nc4cnccc4n3C)CC2)c(C(F)(F)F)c1` [compound 270]: the EC50 under setting [1] was 494 nM.

As to `COc1cc(C2CCN(Cc3nc4cnccc4n3C)CC2)ccc1C(F)(F)F` [compound 278], the EC50 under setting [1] was found to be 245 nM.

With `Cc1cc(Cl)ccc1[C@H]1CCN(Cc2nc3cnccc3n2C)C[C@H]1C` (relative stereo) [compound 161], the EC50 was determined as 393 nM.

Turning to `CC1CN(Cc2nc3ncccc3n2C)CCC1c1ccccc1F` (stereo not drawn) [compound 72], the EC50 amounted to 301 nM.

On to `Cn1c(CN2CCC(c3cc(C(F)(F)F)cc(C(F)(F)F)c3)CC2)nc2ncccc21` [compound 65], for which the EC50 is 144 nM.

As for `Cc1cc(C(F)(F)F)ccc1C1CCN(Cc2nc3cnccc3n2C)CC1` [compound 242], the EC50 under setting [1] was found to be 85.8 nM.

For `Cn1c(CN2CCC(c3ccc(Cl)cc3F)CC2)nc2cccnc21` [compound 112], the 50% effective concentration (EC50) turned out to be 58.5 nM.

With `Cc1cc(OC(F)(F)F)ccc1[C@H]1CCN(Cc2nc3cnccc3n2C)C[C@H]1C` (relative stereo) [compound 165], the concentration for a half-maximal effect (EC50) was determined as 514 nM.
